Our source for the viability values is article PMC12040169 (PLOS Biology, 2025).

The nature of the data set: in vitro. Particulars: human, hela cells, % viability.

The structures appear in SMILES notation.

The viability is a read-out of living cells in per cent, often relative to untreated cells. Consider `CN1CC2(CCCN(Cc3noc(-c4ccccc4)n3)C2)OC1=O` (stereo not drawn) [CBK306952], for which the viability at 28.5 h, 10 µM was 93%.
As for `Cc1nc(N2CCCCC2)ncc1C(=O)NCCSc1nncn1C` [CBK306955], the viability at 28.5 h, 10 µM stood at 81.1%.
Turning to `Cn1c(O)c(CCNc2cc([C@H]3C[C@@H](O)C3)nc(N)n2)cnc1=O` [CBK306956], the viability at 28.5 h, 10 µM was found to be 104%.
For the compound `O=c1cc(N2CCN(CC3CCOC3)CC2)c(-c2ccccc2)n[nH]1` (stereo not drawn) [CBK306957], the viability at 28.5 h, 10 µM is 91.5%.
As for `Cc1cccc(C2CCCN(C(=O)Nc3cnn(C)c3)C2)c1` (stereo not drawn) [CBK306961], the figure is 102%; as for `Cc1nc(CCCn2cnc3nccnc3c2=O)sc1C` [CBK306962], 103%.
The value for `Cc1nc(N)nc(NCC(O)CN(C)C)c1Cl` (stereo not drawn) [CBK306963] was 81.7%.
Regarding `COCCN(Cc1ccncc1)C(=O)c1cnc2ccnn2c1C` [CBK306965], the viability at 28.5 h, 10 µM was found to be 92.3%.
As for `Cc1cc(C)c2nonc2c1S(=O)(=O)NCCN1CCCCC1CO` (stereo not drawn) [CBK306966], the viability at 28.5 h, 10 µM came to 94.8%.
As to `CCN1CCC2(CCC1=O)CN(Cc1noc(CC(C)C)n1)CCN2C` (stereo not drawn) [CBK306971], the viability at 28.5 h, 10 µM turned out to be 90.5%.
As for `Cn1cc(CCNC(=O)N(Cc2ccccn2)CC2CCCO2)cn1` (stereo not drawn) [CBK306973], the figure is 99.2%; as for `Nc1nc(CCC(=O)N2CCCC(c3cc(O)ncn3)C2)cs1` (stereo not drawn) [CBK306976], 89.5%.
As to `CC(C)(O)C1CCCN(C(=O)c2coc(COc3cccc(F)c3)n2)C1` (stereo not drawn) [CBK306977], the viability at 28.5 h, 10 µM turned out to be 77.4%.
Turning to `CC1(C)Cc2nc(N3CCOCC3)ncc2C(NC(=O)NC(C)(C)C)C1` (stereo not drawn) [CBK306978], the viability at 28.5 h, 10 µM was determined as 101%.
As for `O=C(c1cn2cc(-c3cccs3)n(CC3CC3)c(=O)c2n1)N1CC(O)C1` [CBK306979], the viability at 28.5 h, 10 µM was determined as 97.4%.
Regarding `c1cnc(NCc2cc3n(n2)CCN(CC2CCCNC2)C3)nc1` (stereo not drawn) [CBK306981], the viability at 28.5 h, 10 µM was 102%.
Consider `Cn1ccnc1CN1CCC2(CC1)CC(C(=O)O)N(C(=O)C1CC1)C2` (stereo not drawn) [CBK306986], for which the viability at 28.5 h, 10 µM stood at 88.2%.
Take `COCC1(C(=O)N(C)Cc2nnc(-c3ccccc3)o2)CCC1` [CBK306987]: the viability at 28.5 h, 10 µM turned out to be 109%.
Consider `Cc1cc(O)n2nc(CC(=O)NCc3nnc4n3CCCCC4)nc2n1` [CBK306989], for which the viability at 28.5 h, 10 µM worked out at 103%.
With `CCN1CCN(Cc2cc(Cl)ccc2OCCCn2ccnc2)CC1` [CBK306990], the viability at 28.5 h, 10 µM is 83.2%.
For `Cc1nc2c(c(=O)n1C)CN(Cc1cc(=O)n3cccc(O)c3n1)C2` [CBK306991], the viability at 28.5 h, 10 µM was determined as 78.8%.
The value for `Cc1nc(CCC(=O)N2Cc3cnn(Cc4ccc(F)cc4)c3C2)n[nH]1` [CBK306993] was 109%; that for `O=C(NCCCn1cccc1)N1CCN(Cc2ccc(F)cc2)CC1` [CBK306994] was 107%; that for `CCN1CCCC(CNS(=O)(=O)c2cc(-n3cccn3)ccc2OC)C1` (stereo not drawn) [CBK306997] was 85.3%.
On to `Cc1ccc2nc(N3CCCC(O)C3)c(CN3CCSCC3)cc2c1` (stereo not drawn) [CBK307000], for which the viability at 28.5 h, 10 µM worked out at 94.7%.
Consider `CCC1(C)CC(=O)c2cc(NC(=O)N(CCO)CCO)ccc2O1` (stereo not drawn) [CBK307003], for which the viability at 28.5 h, 10 µM is 116%.
Regarding `Cc1cc(NCC2(CO)CCOCC2)nc(N2CCCC2)n1` [CBK307005], the viability at 28.5 h, 10 µM came out at 85.8%.
`CC(NC(=O)C1(Cn2ccnc2)CC1)c1ccccc1-n1cccn1` (stereo not drawn) [CBK307006]: the viability at 28.5 h, 10 µM was determined as 94.3%.
On to `CC1(C#N)CCCN(Cc2c[nH]nc2C(=O)O)C1` (stereo not drawn) [CBK307010], for which the viability at 28.5 h, 10 µM amounted to 80.1%.
`Cn1cc(C(Nc2cccc(C#N)n2)[C@H]2C[C@H](O)C2)cn1` (stereo partly drawn) [CBK307011]: the viability at 28.5 h, 10 µM was 105%.
Consider `CCOC(=O)C1(Cc2ccc(F)cc2F)CCCN(C(=O)CC)C1` (stereo not drawn) [CBK307012], for which the viability at 28.5 h, 10 µM was found to be 92.7%.
The value for `CCOc1ccc(Cl)cc1CN(C)C(=O)NCC(c1ccco1)N(C)C` (stereo not drawn) [CBK307013] was 88%; that for `COCCc1nc(CN(C)C)n(Cc2ccccc2C)n1` [CBK307014] was 87.8%.
Consider `COc1nc2ccn(CCNC(=O)C(C)C)c(=O)c2cc1C#N` [CBK307015], for which the viability at 28.5 h, 10 µM was found to be 95.8%.
Turning to `Cc1ccc2nc(N3CCCC(O)C3)c(CN3CCC(F)CC3)cc2c1` (stereo not drawn) [CBK307016], the viability at 28.5 h, 10 µM turned out to be 89.1%.
As for `CCN1CC2(CCC1=O)CCN(c1ccnc(OC)c1C#N)CC2` [CBK307018], the viability at 28.5 h, 10 µM is 95%.
As for `Nc1nc(CCC(=O)N2Cc3cnn(Cc4ccc(F)cc4)c3C2)cs1` [CBK307019], the figure is 99.6%; as for `Cc1cccc(OCC2CCCN(C(=O)c3cn(C)cn3)C2)c1` (stereo not drawn) [CBK307021], 83.4%; as for `Cc1cc2nc(C(=O)NCCCn3ccnc3C(C)C)cc(C)n2n1` [CBK307022], 90.5%.
On to `Cn1nc(NC(=O)Cc2ccsc2)c2c(N3CCOCC3)cccc21` [CBK307023], for which the viability at 28.5 h, 10 µM is 109%.
The value for `CN1CCC(Cc2nc(-c3ccc(Cl)s3)n(CCO)n2)CC1` [CBK307025] was 100%; that for `Cc1ccn2c(F)c(C(=O)N3CCCCC3CN3CCOCC3)nc2c1` (stereo not drawn) [CBK307028] was 82%; that for `O=C(CCn1cnnn1)N1C[C@H]2CC[C@@H]1CN(Cc1cccnc1)C2` [CBK307029] was 88.9%.
Take `Cc1cccc(=O)n1CCCNc1cc(C2CCOC2)nc(N)n1` (stereo not drawn) [CBK307030]: the viability at 28.5 h, 10 µM amounted to 81.9%.
For the compound `CCCNC(=O)N1CCCC(Cc2ccc(F)cc2F)(C(=O)OCC)C1` (stereo not drawn) [CBK307031], the viability at 28.5 h, 10 µM turned out to be 94.2%.
Turning to `Cn1c(N2CCOCC2)nc2cc(C(=O)NCCn3cccn3)ccc21` [CBK307033], the viability at 28.5 h, 10 µM was 87.5%.
With `Cc1cc(-c2cn3cc(C(=O)NCCCCO)nc3c(=O)n2C)c(C)o1` [CBK307037], the viability at 28.5 h, 10 µM stood at 106%.
As to `Cc1cc(-c2cn3cc(C(=O)N4CCCC4C)nc3c(=O)n2C)c(C)o1` (stereo not drawn) [CBK307038], the viability at 28.5 h, 10 µM was 84.8%.
Take `CCNC(=O)C1CCN(Cc2nc(-c3cc(OC)ccc3F)oc2C)C1` (stereo not drawn) [CBK307040]: the viability at 28.5 h, 10 µM was determined as 98.4%.
Take `CC(=O)Nc1ccc(CNC(=O)CN(C)Cc2cc(C)on2)cc1` [CBK307042]: the viability at 28.5 h, 10 µM stood at 82.4%.
Take `Cc1nn2c(=O)[nH]ncc2c1-c1ccccc1C(=O)N(C(C)C)C(C)C` [CBK307043]: the viability at 28.5 h, 10 µM was 109%.
On to `Nc1nonc1-n1nncc1CN1CCCCC1` [CBK307045], for which the viability at 28.5 h, 10 µM turned out to be 86.9%.
In the case of `CCC(NC(=O)C1(Cn2ccnc2)CC1)c1ncccc1C` (stereo not drawn) [CBK307046], the viability at 28.5 h, 10 µM came out at 119%.
Consider `COc1cncc(C(NC(=O)c2ccc3[nH]nnc3c2)[C@H]2C[C@@H](O)C2)c1` (stereo partly drawn) [CBK307049], for which the viability at 28.5 h, 10 µM turned out to be 108%.
The value for `CC#CC(=O)N1CCCC(Cc2ccc(F)cc2F)(C(=O)OCC)C1` (stereo not drawn) [CBK307051] was 111%.
The value for `Cc1cc(N2CCCN(C(=O)CCCOc3ccccc3)CC2)ccn1` [CBK307052] was 86.6%; that for `CSc1ncc(C(=O)N2CCC(N3CCCC(O)C3)CC2)cn1` (stereo not drawn) [CBK307055] was 106%; that for `CCOC(=O)C1CCCN(Cc2cccc(Cl)c2Cl)C1` (stereo not drawn) [CBK307056] was 85.2%.
As for `Cc1ncccc1OC1(C(=O)NCc2n[nH]c3c2CCC3)CCNCC1` [CBK307057], the viability at 28.5 h, 10 µM came to 101%.
For the compound `Cc1cnn(C2(C(=O)O)CCN(C(=O)c3cccc(C#N)c3)CC2)c1` [CBK307058], the viability at 28.5 h, 10 µM is 102%.
In the case of `Cn1c(=O)n(C)c2cc(CNC(=O)COCC3CCCCO3)ccc21` (stereo not drawn) [CBK307061], the viability at 28.5 h, 10 µM came out at 109%.
`Cc1ccc(F)c(OC2(C(=O)O)CCN(Cc3ncc[nH]3)CC2)c1` [CBK307062]: the viability at 28.5 h, 10 µM was 85.2%.
`Cc1c(C(=O)N2CCC(N3CCSCC3)CC2)[nH]c2c(F)cccc12` [CBK307065]: the viability at 28.5 h, 10 µM was determined as 96.8%.
As for `CC(C)Cn1cncc1CNS(=O)(=O)c1cccc(C(=O)N2CCC2)c1` [CBK307068], the viability at 28.5 h, 10 µM amounted to 90.3%.
For the compound `CSc1nccc(N2CCC(NCCn3c(C)cc(C)nc3=O)CC2)n1` [CBK307070], the viability at 28.5 h, 10 µM came out at 85.3%.
`COc1ccc(Cn2ncnc2CC2CCNCC2)cc1` [CBK307071]: the viability at 28.5 h, 10 µM was found to be 83.4%.
Take `CO[C@@]12CC[C@@H](OCC3CC3)C[C@@H]1N(Cc1c(C)cnn1C)CC2` [CBK307072]: the viability at 28.5 h, 10 µM is 97%.
Turning to `CNC(=O)CN1C[C@H](NC(=O)c2cccc3c2NCCC3)[C@@H](C(C)C)C1` [CBK307073], the viability at 28.5 h, 10 µM was 80.6%.
As for `CC(=O)NC1CCN(c2nc(N(C)C)nc3c2CCN(C(C)=O)C3)CC1` [CBK307079], the viability at 28.5 h, 10 µM was found to be 85.6%.
For `Cn1ncc2c(NCCCN3CCCC(CO)C3)nc(C(C)(C)C)nc21` (stereo not drawn) [CBK307082], the viability at 28.5 h, 10 µM was 93%.
As for `COCC(=O)NCc1cc2n(n1)CCN(Cc1cccs1)C2` [CBK307085], the viability at 28.5 h, 10 µM came to 106%.
Take `O=c1cc(N2CCN(CC3(O)CCNC3)CC2)c(-c2ccccc2)n[nH]1` (stereo not drawn) [CBK307088]: the viability at 28.5 h, 10 µM is 107%.
Take `CCOc1ccc(NC(=O)N(C)Cc2noc(CC(C)C)n2)cc1C#N` [CBK307089]: the viability at 28.5 h, 10 µM was 85.2%.
For the compound `COc1cccc2ncn(CCCn3cccn3)c(=O)c12` [CBK307094], the viability at 28.5 h, 10 µM was determined as 89.7%.
For `CCN(CC)C(=O)c1c(NC(=O)c2cccs2)sc2c1CCC2` [CBK307096], the viability at 28.5 h, 10 µM amounted to 93%.
In the case of `CCCN1CC(NS(=O)(=O)c2ccc(OC)c3c2CCCC3)CC1=O` (stereo not drawn) [CBK307098], the viability at 28.5 h, 10 µM came to 79.7%.
For the compound `O=C(Nc1sc2c(c1C(=O)N1CCOCC1)CCCCC2)c1cccs1` [CBK307099], the viability at 28.5 h, 10 µM is 105%.
Consider `CC1CCc2c(sc(NC(=O)c3cccs3)c2C(=O)N2CCOCC2)C1` (stereo not drawn) [CBK307101], for which the viability at 28.5 h, 10 µM worked out at 100%.
As for `CCc1noc(CN2CCCC(c3ccc(C(=O)O)cc3)C2)n1` (stereo not drawn) [CBK307102], the figure is 105%; as for `CCC(NS(=O)(=O)c1cc(-n2cccn2)ccc1OC)C1CC(O)C1` (stereo not drawn) [CBK307103], 106%; as for `CCOc1ccc(-c2ccnc(N[C@H]3CC[C@@H](N)CC3)n2)cc1C(=O)O` [CBK307104], 89.8%.
